Source: patent US7872014B2, “Anaplastic lymphoma kinase modulators and methods of use” (Exelixis, Inc., priority 2003, dated 2011)
Counter-ions that a name gives are not always drawn.

Molecular target: T1, ALK (baculovirus expressed human ALK kinase domain F1098-K1410) (Homo sapiens, UniProt Q9UM73)
T1 construct: baculovirus expressed human ALK kinase domain F1098-K1410; made in house
Experiment: Luciferase-Coupled Chemiluminescent Kinase assay (LCCA), ALK biochemical activity
Details: inhibition of ALK; mean values; 1 μM ATP, 4 μM poly-AEKY, 12 nM ALK, 2 hours ambient temperature
Procedure: ALK biochemical activity was assessed using a Luciferase-Coupled Chemiluminescent Kinase assay (LCCA) format in which kinase activity was measured as the percent ATP remaining following the kinase reaction. ATP remaining after the kinase reaction was detected by luciferase-luciferin-coupled chemiluminescence.
The reaction was initiated by mixing test compounds, 1 μM ATP, 4 μM poly-AEKY and 12 nM ALK (baculovirus expressed human ALK kinase domain F1098-K1410) in a 20 μL assay buffer ([…] pH 7.5, 10 mM MgCl2, 0.02% Triton X-100, 100 mM DTT, 2 mM MnCl2). The mixture was incubated at ambient temperature for 2 hours after which 20 μL luciferase-luciferin mix was added and the chemiluminescent signal read using a Wallac Victor^2 reader. The luciferase-luciferin mix consists of 50 mM HEPES, pH 7.8, 8.5 μg/mL oxalic acid (pH 7.8), 5 (or 50) mM DTT, 0.4% Triton X-100, 0.25 mg/mL coenzyme A, 63 μM AMP, 28 μg/mL luciferin and 40,000 units of light/mL luciferase.
Consumption of ATP by ALK can thus be quantified and utilized as a measure of inhibition of ALK activity by compounds described herein. By employing serial dilutions of compounds to be tested, the ability of test compounds to inhibit ALK activity can be determined.

T1 sequence (Q9UM73 1098-1410): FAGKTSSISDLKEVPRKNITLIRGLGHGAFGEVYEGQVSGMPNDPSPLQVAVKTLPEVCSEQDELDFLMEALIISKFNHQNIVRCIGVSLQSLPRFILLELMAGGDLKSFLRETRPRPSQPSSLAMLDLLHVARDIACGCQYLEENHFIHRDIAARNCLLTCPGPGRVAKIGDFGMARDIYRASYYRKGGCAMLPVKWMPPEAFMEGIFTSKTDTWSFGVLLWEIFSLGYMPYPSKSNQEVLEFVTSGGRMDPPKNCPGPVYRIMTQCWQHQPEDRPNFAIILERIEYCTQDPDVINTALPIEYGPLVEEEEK

| Structure (SMILES) | IC50 [nM] |
| --- | --- |
| COc1cc2c(-c3ccc(O)cc3)nc3[nH]nc(Cc4cccc(C)c4)c3c2cc1OC [Example 14, hydrochloride] | 100 to 999 |
| COc1cc2c(c(-c3ccc(O)cc3)nc3[nH]nc(Cc4ccccc4)c32)c(OC)c1OC [Example 24, 4-[6,7,8-tris(methyloxy)-1-(phenylmethyl)-3H-pyrazolo[3,4-c]isoquinolin-5-yl]phenol] | ≤ 99 |
| COc1ccc2c(-c3ccc(O)cc3)nc3[nH]nc(Cc4ccccc4)c3c2c1 [Example 26, 4-[8-(methyloxy)-1-(phenylmethyl)-3H-pyrazolo[3,4-c]isoquinolin-5-yl]phenol] | 100 to 999 |
| COc1cc2c(-c3ccc(O)c(C)c3)nc3[nH]nc(C)c3c2cc1OC [Example 37, 2-methyl-4-[1-methyl-7,8-bis(methyloxy)-3H-pyrazolo[3,4-c]isoquinolin-5-yl]phenol] | ≤ 99 |
| COc1cc(-c2nc3[nH]nc(C)c3c3cc(OC)c(OC)cc23)ccc1O [Example 38, 4-[1-methyl-7,8-bis(methyloxy)-3H-pyrazolo[3,4-c]isoquinolin-5-yl]-2-(methyloxy)phenol] | 100 to 999 |
| COc1cc2c(cc1OCCN1CCOCC1)c(-c1ccc(O)cc1)nc1[nH]nc(C)c12 [Example 39, 4-{1-methyl-8-(methyloxy)-7-[(2-morpholin-4-ylethyl)oxy]-3H-pyrazolo[3,4-c]isoquinolin-5-yl}phenol] | 100 to 999 |
| CCOc1cc(-c2nc3[nH]nc(C)c3c3cc(OC)c(OC)cc23)ccc1O [Example 40, 2-(ethyloxy)-4-[1-methyl-7,8-bis(methyloxy)-3H-pyrazolo[3,4-c]isoquinolin-5-yl]phenol] | 100 to 999 |
| COc1cc2c(-c3ccc(O)c(Cl)c3)nc3[nH]nc(C)c3c2cc1OC [Example 41, 2-chloro-4-[1-methyl-7,8-bis(methyloxy)-3H-pyrazolo[3,4-c]isoquinolin-5-yl]phenol] | ≤ 99 |
| COc1cc2c(-c3ccc(O)c(F)c3)nc3[nH]nc(C)c3c2cc1OC [Example 42, 2-fluoro-4-[1-methyl-7,8-bis(methyloxy)-3H-pyrazolo[3,4-c]isoquinolin-5-yl]phenol] | 100 to 999 |
| COc1cc2c(-c3ccc(O)cc3)nc3[nH]nc(CN4CCCC4=O)c3c2cc1OC [Example 45, 1-{[5-(4-hydroxyphenyl)-7,8-bis(methyloxy)-3H-pyrazolo[3,4-c]isoquinolin-1-yl]methyl}pyrrolidin-2-one] | 100 to 999 |
| COc1cc2c(-c3ccc(O)cc3)nc3[nH]nc(C)c3c2cc1OCC1CCNCC1 [Example 54, 4-{1-methyl-7-(methyloxy)-8-[(piperidin-4-ylmethyl)oxy]-3H-pyrazolo[3,4-c]isoquinolin-5-yl}phenol] | ≤ 99 |
| COc1cc2c(cc1OCC1CCNCC1)c(-c1ccc(O)cc1)nc1[nH]nc(C)c12 [Example 55, 4-{1-methyl-8-(methyloxy)-7-[(piperidin-4-ylmethyl)oxy]-3H-pyrazolo[3,4-c]isoquinolin-5-yl}phenol] | 100 to 999 |
| COc1ccc2c(-c3ccc(O)cc3)nc3[nH]nc(C)c3c2c1OCC1CCNCC1 [Example 61, 4-{1-methyl-8-(methyloxy)-9-[(piperidin-4-ylmethyl)oxy]-3H-pyrazolo[3,4-c]isoquinolin-5-yl}phenol] | ≤ 99 |
| CCc1cc(-c2nc3[nH]nc(C)c3c3cc(OC)c(OC)cc23)ccc1O [Example 63, 2-ethyl-4-[1-methyl-7,8-bis(methyloxy)-3H-pyrazolo[3,4-c]isoquinolin-5-yl]phenol] | 100 to 999 |
| COc1ccc2c(-c3ccc(O)cc3)nc3[nH]nc(C)c3c2c1OCC1CCN(C)CC1 [Example 64, 4-(1-methyl-8-(methyloxy)-9-{[(1-methylpiperidin-4-yl)methyl]oxy}-3H-pyrazolo[3,4-c]isoquinolin-5-yl)phenol] | ≤ 99 |
| COc1cc2c(-c3ccc(O)cc3)nc3[nH]nc(C4CCN(C(=O)OC(C)(C)C)CC4)c3c2cc1OC [Example 67, 1,1-dimethylethyl 4-[5-(4-hydroxyphenyl)-7,8-bis(methyloxy)-3H-pyrazolo[3,4-c]isoquinolin-1-yl]piperidine-1-carboxylate] | 100 to 999 |
| COc1cc2c(-c3ccc(O)c(OC(F)F)c3)nc3[nH]nc(C)c3c2cc1OC [Example 76, 2-[(difluoromethyl)oxy]-4-[1-methyl-7,8-bis(methyloxy)-3H-pyrazolo[3,4-c]isoquinolin-5-yl]phenol] | 1000 to 2000 |

Second part, the molecule after the results:

| IC50 [nM] | Structure (SMILES) |
| --- | --- |
| ≤ 99 | COc1cc2c(-c3ccc(O)cc3)nc3[nH]nc(C)c3c2cc1OC [Example 15, trifluoroacetate] |
| ≤ 99 | COc1cc2c(c(-c3ccc(O)cc3)nc3[nH]nc(C)c32)c(OC)c1OC [Example 25, 4-[1-methyl-6,7,8-tris(methyloxy)-3H-pyrazolo[3,4-c]isoquinolin-5-yl]phenol] |
| 100 to 999 | COc1cc2c(-c3ccc(O)cc3)nc3[nH]nc(C(F)(F)F)c3c2cc1OC [Example 27, 4-[7,8-bis(methyloxy)-1-(trifluoromethyl)-3H-pyrazolo[3,4-c]isoquinolin-5-yl]phenol] |
| 100 to 999 | COc1cc2c(-c3ccc(O)cc3)nc3[nH]nc(C(C)C)c3c2cc1OC [Example 28, 4-[1-(1-methylethyl)-7,8-bis(methyloxy)-3H-pyrazolo[3,4-c]isoquinolin-5-yl]phenol] |
| 100 to 999 | COc1cc2c(-c3ccc(O)cc3)nc3[nH]ncc3c2cc1OC [Example 29, 4-[7,8-bis(methyloxy)-3H-pyrazolo[3,4-c]isoquinolin-5-yl]phenol] |
| ≤ 99 | COc1cc(OC)c2c(-c3ccc(O)cc3)nc3[nH]nc(C)c3c2c1 [Example 31, 4-[1-methyl-6,8-bis(methyloxy)-3H-pyrazolo[3,4-c]isoquinolin-5-yl]phenol] |
| 100 to 999 | COc1cc(OC)c2c(-c3ccc(O)cc3)nc3[nH]ncc3c2c1 [Example 32, 4-[6,8-bis(methyloxy)-3H-pyrazolo[3,4-c]isoquinolin-5-yl]phenol] |
| ≤ 99 | COc1cc2c(c(-c3ccc(O)cc3)nc3[nH]ncc32)c(OC)c1OC [Example 34, 4-[6,7,8-tris(methyloxy)-3H-pyrazolo[3,4-c]isoquinolin-5-yl]phenol] |
| ≤ 99 | COc1cc2c(-c3ccc(O)cc3)nc3[nH]nc(C)c3c2c(OC)c1OC [Example 35, 4-[1-methyl-7,8,9-tris(methyloxy)-3H-pyrazolo[3,4-c]isoquinolin-5-yl]phenol] |
| ≤ 99 | COc1ccc2c(-c3ccc(O)cc3)nc3[nH]nc(C)c3c2c1 [Example 36, 4-[1-methyl-8-(methyloxy)-3H-pyrazolo[3,4-c]isoquinolin-5-yl]phenol] |
| ≤ 99 | COc1cc2c(-c3ccc(O)c(Br)c3)nc3[nH]nc(C)c3c2cc1OC [Example 44, 2-bromo-4-[1-methyl-7,8-bis(methyloxy)-3H-pyrazolo[3,4-c]isoquinolin-5-yl]phenol] |
| 100 to 999 | CCOc1cc2c(cc1OC)c(-c1ccc(O)cc1)nc1[nH]nc(C)c12 [Example 58, 4-[8-(ethyloxy)-1-methyl-7-(methyloxy)-3H-pyrazolo[3,4-c]isoquinolin-5-yl]phenol] |
| ≤ 99 | COc1ccc2c(-c3ccc(O)cc3)nc3[nH]nc(C)c3c2c1OC [Example 59, 4-[1-methyl-8,9-bis(methyloxy)-3H-pyrazolo[3,4-c]isoquinolin-5-yl]phenol] |
| 100 to 999 | CCOc1cc2c(-c3ccc(O)cc3)nc3[nH]nc(C)c3c2cc1OC [Example 60, 4-[7-(ethyloxy)-1-methyl-8-(methyloxy)-3H-pyrazolo[3,4-c]isoquinolin-5-yl]phenol] |
| ≤ 99 | COc1cc2c(-c3ccc(O)cc3)nc3[nH]nc(C)c3c2cc1OCC1CCN(C)CC1 [Example 65, 4-(1-methyl-7-(methyloxy)-8-{[(1-methylpiperidin-4-yl)methyl]oxy}-3H-pyrazolo[3,4-c]isoquinolin-5-yl)phenol] |
| ≤ 99 | COc1cc2c(cc1C)c(-c1ccc(O)cc1)nc1[nH]nc(C)c12 [Example 66, 4-[1,7-dimethyl-8-(methyloxy)-3H-pyrazolo[3,4-c]isoquinolin-5-yl]phenol] |
| ≤ 99 | COc1ccc2c(-c3ccc(O)c(Cl)c3)nc3[nH]nc(C)c3c2c1OC [Example 69, 2-chloro-4-[1-methyl-8,9-bis(methyloxy)-3H-pyrazolo[3,4-c]isoquinolin-5-yl]phenol] |
| ≤ 99 | COc1ccc2c(-c3ccc(O)c(F)c3)nc3[nH]nc(C)c3c2c1OC [Example 70, 2-fluoro-4-[1-methyl-8,9-bis(methyloxy)-3H-pyrazolo[3,4-c]isoquinolin-5-yl]phenol] |
| ≤ 99 | COc1ccc2c(-c3ccc(O)c(C)c3)nc3[nH]nc(C)c3c2c1OC [Example 71, 2-methyl-4-[1-methyl-8,9-bis(methyloxy)-3H-pyrazolo[3,4-c]isoquinolin-5-yl]phenol] |
| ≤ 99 | COc1ccc2c(-c3ccc(O)c(Br)c3)nc3[nH]nc(C)c3c2c1OC [Example 72, 2-bromo-4-[1-methyl-8,9-bis(methyloxy)-3H-pyrazolo[3,4-c]isoquinolin-5-yl]phenol] |
| ≤ 99 | COc1ccc2c(-c3ccc(O)cc3)nc3[nH]nc(C)c3c2c1C [Example 78, 4-[1,9-dimethyl-8-(methyloxy)-3H-pyrazolo[3,4-c]isoquinolin-5-yl]phenol] |
